Structures can show the parent of a compound that is named as a salt.
What was measured:
[1] = solution stability test (decomposition percentage from absorbance before and after standing); format: physicochemical; settings: 5% (w/v) in ethanol/methyl ethyl ketone (1/1 by volume), room temperature, 10 days of standing
Protocol: A solution stability test was carried out in the following manner.
Each polymethine compound specified below in Table 1 was dissolved in a mixture of ethanol and methyl ethyl ketone (1/1 by volume) to a concentration of 5% (w/v) and the solution was allowed to stand in a room (at room temperature) for 10 days. The absorbance (gram extinction coefficient) of the solution was measured before and after standing, and the decomposition percentage was calculated using the following formula.
Decomposition percentage (%)=[(absorbance just after preparation of solution−absorbance after 10 days of standing)/(absorbance just after preparation of solution)]×100

[2] = solubility in methanol and ethanol; format: physicochemical; settings: for solubility in ethanol: solvent ethanol; for solubility in methanol: solvent methanol

Row | SMILES | melting point | Decomposition percentage [1] [%] | solubility in ethanol [2] [%] | solubility in methanol [2] [%]
1 | CN1/C(=C\C=C2/CCC(/C=C/C3=[N+](C)c4ccccc4C3(C)C)=C2Cl)C(C)(C)c2ccccc21 (as salt: toluenesulfonate) (hydrate or solvate) [Example 1] | 199 to 200 °C (dec.) | – | – | –
2 | CN1/C(=C\C=C2/CCC(/C=C/C3=[N+](C)c4ccccc4C3(C)C)=C2Cl)C(C)(C)c2ccccc21 (as salt: toluenesulfonate) (hydrate or solvate) [Example 2] | 201 to 203 °C (dec.) | – | – | –
3 | CN1/C(=C\C=C2/CCC(/C=C/C3=[N+](C)c4ccccc4C3(C)C)=C2Cl)C(C)(C)c2ccccc21 (as salt: toluenesulfonate) (hydrate or solvate) [Example 3] | 198 to 199 °C (dec.) | – | – | –
4 | CN1/C(=C\C=C2/CCC(/C=C/C3=[N+](C)c4ccccc4C3(C)C)=C2Cl)C(C)(C)c2ccccc21 [Comparative Example 1, reference compound] | – | 8.1 | – | –
5 | CN1/C(=C\C=C2/CCC(/C=C/C3=[N+](C)c4ccccc4C3(C)C)=C2Cl)C(C)(C)c2ccccc21 [Example 1] | – | 2.0 | ≥ 15 | ≥ 15
6 | CN1/C(=C\C=C2/CCC(/C=C/C3=[N+](C)c4ccccc4C3(C)C)=C2Cl)C(C)(C)c2ccccc21 [Example 2] | – | 2.1 | ≥ 15 | ≥ 15

The remaining lines, values ahead:

Row | melting point | Decomposition percentage [1] [%] | solubility in ethanol [2] [%] | solubility in methanol [2] [%] | SMILES
7 | – | 2.2 | ≥ 15 | ≥ 15 | CN1/C(=C\C=C2/CCC(/C=C/C3=[N+](C)c4ccccc4C3(C)C)=C2Cl)C(C)(C)c2ccccc21 [Example 3]
8 | – | 1.9 | ≥ 15 | ≥ 15 | CN1/C(=C\C=C2/CCC(/C=C/C3=[N+](C)c4ccccc4C3(C)C)=C2Cl)C(C)(C)c2ccccc21 [Example 4]
9 | – | – | ≥ 15 | ≥ 15 | CN1/C(=C\C=C2/CCC(/C=C/C3=[N+](C)c4ccccc4C3(C)C)=C2Cl)C(C)(C)c2ccccc21 [Example 5]

Source: patent publication US20080091033A1, “Nonsolvate-Form Crystal of Polymethine Compound, Process for Producing the Same and Use Thereof” (YAMAMOTO CHEMICALS, INC., priority 2004, published 2008)
